Patent US20100144853A1, “NOVEL COMBINED ADMINISTRATION” (priority 2008, published 2010)

Experiment: Stability of COMPOUND A in human intestinal fluids, Procedure F (suspension, no separation of excess), first table
Type: in vitro ADME
Conditions: summary of Example 5
Protocol: Fasted Intestinal Fluids: the fluids from 4 different subjects were collected with a naso-jejunal tube after fasting overnight and pooled.
Procedure F (COMPOUND A and COMPOUND B in suspension, the degradation immediately stopped without separation of excess compound): Stock K=COMPOUND B suspension (0.5 mg/mL)
Dilute 1 part of COMPOUND B suspension (stock J) with 3 parts of FeSSIF pH6.5 solution.
500 μL of freshly thawed intestinal fluids (fasted and stimulated state) were added to 1.2 mg of COMPOUND A in a 1 mL glass vial. The suspended compound was stirred for 15 min at 37° C. to obtain wetting and a homogenous suspension. In parallel, 4 glass vials were prepared with 20 μL of a COMPOUND B suspension at different concentrations. These concentrations were obtained by mixing FeSSIF pH6.5 and COMPOUND B suspension (stock K) in different ratios, respectively 1:[…], 1:1, 0:1 to obtain 0, 1, 2 and 4% related to COMPOUND A. At time zero, 100 μL of COMPOUND A suspension preincubated at 37° C. were added to the 20 μL COMPOUND B suspension. The mixture was incubated at 37° C. with gentle stirring. After 15 min and 60 min, the reaction was stopped by mixing a 50 μL sample with 150 μL isopropanol and centrifuged at 5′000 rpm during 5 min. The clear supernatant was analyzed for the hydrolysis product and its oxidized form by HPLC.

**Q.** Which “Effect of COMPOUND B on gastrointestinal enzyme induced hydrolytic degradation of COMPOUND A” value does the source give for `CCCCCCCCCCC[C@@H](C[C@@H]1OC(=O)[C@H]1CCCCCC)OC(=O)[C@H](CC(C)C)NC=O` [COMPOUND B, 1-(3-hexyl-4-oxo-oxetan-2-yl)tridecan-2-yl 2-formyl-amino-4-methyl-pentanoate, reference compound] here?
**A.** efficiently prevents gastrointestinal enzyme induced hydrolytic degradation of COMPOUND A
